The record followed here is patent US11865098B1, “Methods and compositions for treating excessive sleepiness” (Axsome Malta Ltd., priority 2017, dated 2024).

The subject of data set [1] is adults with OSA and excessive sleepiness. In words: Safety and tolerability (TEAEs), phase 3 randomized withdrawal study in OSA. It counts as in vivo, human. The method, then:
The study was a double-blind, placebo-controlled, enriched, randomized withdrawal design (FIG. 1). In the Titration Phase (weeks 1-2), patients started on a once-daily dose of APC 75 mg and could be titrated up or down every 3 days to reach a maximum tolerated dose of APC 75, 150, or 300 mg. In the Stable-Dose Phase (weeks 3-4), patients continued to receive the dose that they were titrated to in the Titration Phase for 2 weeks. In the Double-Blind Withdrawal Phase (weeks 5-6), patients who reported “much” or “very much” improvement on the Patient Global Impression of Change (PGI-C) scale (Guy W. ECDEU assessment manual for psychopharmacology, revised. US Department of Health, Education, and Welfare publication (ADM 76-338). Rockville, MD: National Institute of Mental Health; 1976), and who had improved on the Maintenance of Wakefulness Test (MWT) and Epworth Sleepiness Scale (ESS) (Johns, Sleep 14(6):540 (1991)) at week 4 were randomized 1:1 to receive the same current dose of JZP-110 or placebo for 2 weeks.
MWT and ESS data were analyzed using a mixed-effect model repeated measures (MMRM); PGI-C and CGI-C were evaluated using a chi-square test. […] Safety and tolerability were evaluated based on treatment-emergent adverse events (TEAEs), vital signs, and laboratory values.

In data set [2] the test system is patients with narcolepsy type 1 or type 2. Description: PGI-C, 12-week phase 3 study in narcolepsy. The class given is in vivo, human. The method, then: The study was a 12-week, double-blind, randomized, placebo-controlled, parallel-group study. Patients were randomized (1:1:1:1) to receive placebo or APC 75, 150, or 300 mg; randomization was stratified by the presence or absence of cataplexy.
Co-primary endpoints were change from baseline to week 12 in MWT mean sleep latency and ESS score. The key secondary endpoint was the percentage of patients who reported improvement on the Patient Global Impression of Change (PGI-C) (Guy, ECDEU assessment manual for psychopharmacology, revised. US Department of Health, Education, and Welfare publication (ADM 76-338). Rockville, MD: National Institute of Mental Health; 1976) at week 12. Other secondary and exploratory endpoints included changes on function and quality-of-life and changes in the number of cataplexy attacks per week. Safety evaluation included adverse events, laboratory tests, and vital signs.
Efficacy analyses were based on the modified intent-to-treat population (mITT), defined as all patients who were randomized, received at least 1 dose of study drug, and had baseline and at least 1 post-baseline evaluation of both MWT and ESS. MWT and ESS were analyzed using a mixed-effect repeated measures (MMRM) model. PGI-C was analyzed using a chi-square test. […]

The mark [3] stands for this setting: Randomized Withdrawal Phase, all JZP-110 doses (n = 62).
Setting [4] is: Stable-Dose Phase, all JZP-110 doses (n = 157).

Regarding `NC(=O)OC[C@H](N)Cc1ccccc1` [JZP-110, (R)-2-amino-3-phenylpropyl carbamate], in data set [1] (setting [3]), the “Any TEAE, incidence” value is “ρ 18 (29.0) n (%)”; the “Aphthous stomatitis, incidence” value is “ρ 1 (1.6) n (%)”; the “Cough, incidence” value is reported as “ρ 1 (1.6) n (%)”; the “Nasopharyngitis, incidence” value was “ρ 3 (4.8) n (%)”. Further, in data set [1] (setting [3]), the “Serious TEAEs, incidence” value is “ρ 0 n (%)”; the “TEAEs leading to withdrawal, incidence” value is listed as “ρ 0 n (%)”; the “Upper respiratory tract infection, incidence” value was “ρ 1 (1.6) n (%)”. Moreover, in data set [1] (setting [4]), the “Diarrhea, incidence” value is recorded as “ρ 0 n”; the “Dyspepsia, incidence” value is listed as “ρ 0 n”; the “Serious TEAE, incidence” value is on record as “ρ 0 n”; the “TEAE leading to withdrawal, incidence” value is “ρ 0 n”. Further, the “Any TEAE, incidence” value in data set [1] (Stable-Dose Phase, all JZP-110 doses (n = 157), listed as APC) is listed as 10.2%. Further, the “Serious TEAE, incidence” value in data set [1] (Titration Phase, all JZP-110 doses (n = 174)) is listed as “ρ 0 n”. The “Any TEAE, incidence” value in data set [1] (Titration Phase, all JZP-110 doses (n = 174), listed as APC) is 48.9%. Moreover, the “Rebound hypersomnia or withdrawal effects after abrupt discontinuation” value in data set [1] (placebo group in the Randomized Withdrawal Phase) is listed as “no evidence of rebound hypersomnia or withdrawal effects”. In data set [1] (whole study), the “Serious TEAEs in the study” value is reported as “no serious TEAEs”. Also, the “Percentage of patients who reported improvement in overall condition (PGI-C) relative to placebo” value in data set [2] (all doses (nominal P-value at 75 mg), week 12, mITT) is given as “significantly increased the percentage of patients who reported improvement”. Further, the “PGI-C improvement, effect at week 1” value in data set [2] (all doses, as early as week 1) is “Statistically significant effects”.
